Data published in patent US20190308987A1, “DUAL MODULATORS OF BOTH MU AND KAPPA OPIOID RECEPTORS” (priority 2016, published 2019).
Where “and” joins values, the source holds several entries; their conditions need not be identical. Identical values can stand only once. Entries after “also recorded” stand apart in the source; their conditions may differ.

Columns and labels:
KOR = target: T1, KOR (Homo sapiens, UniProt P41145); conditions: NAP data from ref 9b, cited from earlier work
T1 construct: expressed in transfected cells; host or cells: CHO cells (membranes)
T1 sequence (P41145 whole entry): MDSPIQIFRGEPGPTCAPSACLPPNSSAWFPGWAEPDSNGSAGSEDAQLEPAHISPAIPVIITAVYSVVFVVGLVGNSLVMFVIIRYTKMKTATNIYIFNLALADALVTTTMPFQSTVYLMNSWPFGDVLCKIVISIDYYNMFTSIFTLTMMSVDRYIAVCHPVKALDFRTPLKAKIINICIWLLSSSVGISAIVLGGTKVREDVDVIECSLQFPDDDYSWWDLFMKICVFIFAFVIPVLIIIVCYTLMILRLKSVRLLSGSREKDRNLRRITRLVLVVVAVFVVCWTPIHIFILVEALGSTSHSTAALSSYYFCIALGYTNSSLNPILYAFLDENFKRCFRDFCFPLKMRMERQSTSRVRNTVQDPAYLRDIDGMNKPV

MOR = MOR (Mus musculus, UniProt P42866); conditions: relative to DAMGO, NAP data from ref 9b; cited from earlier work
Sequence of MOR (P42866 whole entry): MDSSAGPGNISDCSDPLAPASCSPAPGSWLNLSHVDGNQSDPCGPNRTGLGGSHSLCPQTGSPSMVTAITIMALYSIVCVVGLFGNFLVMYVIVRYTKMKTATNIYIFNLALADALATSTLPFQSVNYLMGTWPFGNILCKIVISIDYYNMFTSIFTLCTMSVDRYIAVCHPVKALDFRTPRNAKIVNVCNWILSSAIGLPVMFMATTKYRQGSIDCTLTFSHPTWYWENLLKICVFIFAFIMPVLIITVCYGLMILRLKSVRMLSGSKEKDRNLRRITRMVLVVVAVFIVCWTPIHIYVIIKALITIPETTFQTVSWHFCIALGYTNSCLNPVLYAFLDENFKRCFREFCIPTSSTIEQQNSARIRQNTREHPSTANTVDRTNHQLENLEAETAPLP

[1] = test system: mouse distal colon circular muscle; test: Colon circular muscle isometric tension recordings, distal colon
Protocol: (§1) Mice were euthanized by cervical dislocation. The colon was dissected, flushed of its contents, and trimmed of mesentery. […] The tissues, 0.5 cm in length, were suspended vertically along the axis of the circular muscle with a metal triangle tied to a hook under 1 g of passive tension in 15 mL siliconized organ baths.
(§2) Data are presented as the mean±S.E.M, values of P≤0.05 were considered significant.

[2] = test system: mouse proximal colon circular muscle; test: Colon circular muscle isometric tension recordings, proximal colon
Protocol: as §1, §2

morphine antinociception = test: Warm water tail immersion (tail flick) test; type: in vivo, Swiss Webster mice; conditions: morphine alone, warm water tail flick
Protocol: Male Swiss Webster mice (Harlan Laboratories, Indianapolis, Ind.) weighing 25-30 g were housed 5 to a cage in animal care quarters and maintained at […] on a 12 h light-dark cycle. Food and water were available ad libitum. The mice were brought to a test room (22±2° C., 12 h light-dark cycle), marked for identification and allowed 18 h to recover from transport and handling. Protocols and procedures were approved by the Institutional Animal Care and Use Committee (IACUC) at Virginia Commonwealth University Medical Center and comply with the recommendations of the IASP (International Association for the Study of Pain).
The warm water tail-immersion test was performed according to previously described methods using a water bath with the temperature maintained at 56±0.1° C.^20 Briefly, before giving the mice injections, a baseline (control) latency was determined. Only mice with a control reaction time of 2 to 4 s were used. The average baseline latency for these experiments was 3.0±0.1 s. The test latency after drug treatment was assessed at the appropriate time, and a 10 s maximal cutoff time was imposed to prevent tissue damage. Antinociception was quantified according to established procedures as the percentage of maximum possible effect (% MPE), which was calculated as follows: % MPE=[(test latency−control latency)/(10−control latency)]×100.^21 Percentage MPE was calculated for each mouse, using at least six mice per group.
Intracerebroventricular (ICV) injections were performed as described previously.^22 Mice were anesthetized with 2.5% isoflurane and a horizontal incision was made in the scalp. A needle was inserted to a depth of 3 mm into the lateral ventrical (2 mm rostral and 2 mm lateral at a 45° angle from the bregma). At intervals, 5 μL injections of drug or vehicle were made using this guide insertion to the same depth using a needle with a guard in nonanesthetized animals.^22, 23 Animals underwent the anesthetized surgery in the morning of the experiment and were then injected with drug at intervals indicated in the text without additional anesthesia. Immediately after testing, the animals were euthanized to minimize any type of distress, according to IACUC guidelines.

intestinal transit = test: Charcoal meal test for gastrointestinal transit; type: in vivo, mice; conditions: charcoal gavage, compound alone
Protocol: Forty-eight hours before testing, mice were placed in cages with raised mesh wire to suspend them above their bedding and prevent ingestion of feces or bedding. The animals were habituated for 24 h in the presence of food and water and then fasted for 24 h with free access to water as previously reported.^24 This time frame was chosen to deplete the intestine and colon of any feces. To maintain caloric intake and to avoid hypoglycemia, mice had access to a sugar water solution consisting of a final concentration of 5% dextrose for the first 8 h of the fasting period. […] At 30 min after the administration of the charcoal meal, the mice were euthanized by cervical dislocation, and the small intestine from the jejunum to the cecum was dissected and placed in cold saline to stop peristalsis. The distance traveled by the leading edge of the charcoal meal was measured relative to the total length of the small intestine, and the percentage of intestinal transit for each animal was calculated as percentage transit (charcoal distance)/(small intestinal length)×100. This is referred to as intestinal transit in the text.

colonic motility [3] = test: Colonic bead expulsion assay; type: in vivo, mice; conditions: morphine 3 mg/kg; naive mice 17 min
Protocol: Mice were habituated and fasted as described above for the gastrointestinal transit analysis. […] At 20 min post-injection, animals were anesthetized with isoflurane (1-2 min) to insert a single 2-mm glass bead into the distal colon at a distance of 3 cm from the anus. Bead insertion was accomplished using a glass rod with a fire-polished end to avoid tissue damage and marked at 3 cm.^25 After bead insertion, mice were placed in individual cages and the time to bead expulsion was monitored. Animals were monitored for a maximum of 2 h unless bead expulsion occurred sooner.

colonic motility [4] = conditions: rodent models; cited from earlier work
[5] = test system: guinea pig ileum Longitudinal Muscle Myenteric Plexus (LMMP); test: Electrical field stimulated contractions in LMMP strips
Protocol: Male albino guinea pigs (350-450 g) were euthanized by asphyxiation with CO2. A segment of ileum was removed and placed in a dissection bath filled with pre-oxygenated Krebs' solution (118 mM NaCl, 4.6 mM KCl, 1.3 mM NaH2PO4, 1.2 mM MgSO4, 25 mM NaHCO3, 11 mM glucose, and 2.5 mM CaCl2). Longitudinal Muscle Myenteric Plexus (LMMP) strips were prepared as previously described.^26 Electrical field stimulation (EFS) (50 V, 7.5 Hz, unless stated otherwise) was applied through concentric electrodes over longitudinal muscle or L-type stimulating electrodes over circular muscle strips to produce neurogenic contractions/relaxations. Drugs were added in single or cumulative doses depending on the assay to determine their inhibitory effects on the neurogenic responses.

GI transit = conditions: humans; cited from earlier work

SMILES: O=C(NC1CCC2(O)C3Cc4ccc(O)c5c4C2(CCN3CC2CC2)C1O5)c1ccncc1 (stereo not drawn) [NAP, 17-Cyclopropylmethyl-3, 14beta-dihydroxy-4,5alpha-epoxy-6beta-(4′-pyridylcarboxamido)morphinan, reference compound]
- EC50 (KOR; 35S-GTP[γS]): 0.0288 ± 0.0144 µM
- % max of agonist (KOR; relative to U50,488H): 45.5±4.4%
- % max of agonist (MOR): 22.72±0.84% and 22.7 ± 0.8%
- inhibition of morphine-induced contractions ([1]; 1 nM antagonist, distal colon): neither NAP nor BNAP showed significant inhibition of morphine-induced contractions
- antagonism of morphine effects ([1]; 10 nM antagonist, distal colon): neither NAP nor BNAP showed significant antagonism of morphine effects
- morphine pD2 in presence of antagonist ([1]; 100 nM antagonist, distal colon (naive 6.0)): 5.3
- contractions induced by compound alone ([1]; up to 30 μM, distal colon preparation): Neither BNAP nor NAP alone at concentrations up to 30 μM induced contractions
- inhibition of morphine-induced contractions ([2]; 1 nM antagonist, proximal colon): neither NAP nor BNAP showed significant inhibition of morphine-induced contractions
- morphine pD2 in presence of antagonist ([2]; 10 nM antagonist, proximal colon (naive 6.8)): 5.9
- further reduction of morphine pD2 ([2]; 100 nM versus 10 nM antagonist, proximal colon): no further reduction of the morphine pD2
- contractions induced by compound alone ([2]; up to 30 μM, proximal colon preparation): Neither BNAP nor NAP alone at concentrations up to 30 μM induced contractions

SMILES: CN1CC[C@]23c4c5ccc(O)c4O[C@H]2[C@@H](O)C=C[C@H]3[C@H]1C5 [morphine, reference compound]
- antinociception (morphine antinociception): dose dependently induced antinociception
- reduction of intestinal motility (intestinal transit): 3 fold
- bead expulsion time (colonic motility [3]): 75 min

SMILES: COC(=O)[C@@H]1C[C@H](OC(C)=O)C(=O)[C@H]2[C@@]1(C)CC[C@H]1C(=O)O[C@H](c3ccoc3)C[C@]21C [Salvinorin A]
- effect on colonic / GI motility (colonic motility [4]): reduced colonic motility; also recorded: can reduce GI motility

SMILES: C[C@@H](NC(=O)[C@@H](N)Cc1ccc(O)cc1)C(=O)NCC(=O)N(C)[C@@H](Cc1ccccc1)C(=O)NCCO [DAMGO, reference compound]
- pIC50 for inhibition of EFS contractions ([5]; guinea pig ileum LMMP): 7.67±0.03
- effect of nor-BNI on agonist inhibition of EFS contractions ([5]; nor-BNI 0.1 μM, 15 min pretreatment): did not significantly effect DAMGO inhibition of EFS contractions

SMILES: CN(C(=O)C(c1ccccc1)c1ccccc1)[C@H](CN1CC[C@H](O)C1)c1ccccc1 [Asimadoline]
- effect on GI transit (GI transit): did not alter GI transit
